The source of these data is ChEMBL document CHEMBL1201862, “PubChem BioAssay data set” (2004).

Activity calls are given as the source filed them.

Assay [1] in a line: AlphaScreen signal interference compounds, dose response, artefact control for ARNT-TACC3 interaction inhibitor project, biochemical, luminescence, cherry-pick (AID 651705).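 Further: AlphaScreen bead proximity signal that flags compounds interfering with the detection technology; potency reflects signal decrease which marks the compound as an assay artifact.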 Type of assay: functional. For orientation: In Alpha technology, singlet oxygen from a donor bead excites a nearby acceptor bead.
A further assay concerns the target Cytochrome P450 2D6 (Homo sapiens, UniProt P10635).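 Further: CYP2D6 member of a cytochrome P450 panel assay.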
The next assay concerns the target Cytochrome P450 2C9 (Homo sapiens, UniProt P11712).
A further assay addresses Cytochrome P450 2C19 (Homo sapiens, UniProt P33261). The experiment in a line: Cytochrome panel assay with activity outcomes. Panel member name: p450-cyp2c19 Compounds with AC50 equal or less than 10 uM are considered active. The following applies: read-out: AC50. Type of assay: functional.
The nature of assay [2]: ARNT/TACC3 interaction disruptors, potency, confirmation, biochemical, AlphaScreen, cherry-picked samples (AID 651703).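 Further: His-tagged ARNT PAS-B domain paired with GST-TACC3 E629A dimer coactivator fragment; potency of inhibitors that break up the complex and lower AlphaScreen signal.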 Type of assay: functional, Homo sapiens.
For assay [3], the target named is Ras and Rab interactor 1/Tyrosine-protein kinase ABL1 (Homo sapiens, UniProt P00519+Q13671). Type of assay: functional.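 Further: biochemical TR-FRET dose-response test measuring inhibition of binding between Rin1 and Abl proteins.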
Sequence of Ras and Rab interactor 1/Tyrosine-protein kinase ABL1 (P00519 whole entry): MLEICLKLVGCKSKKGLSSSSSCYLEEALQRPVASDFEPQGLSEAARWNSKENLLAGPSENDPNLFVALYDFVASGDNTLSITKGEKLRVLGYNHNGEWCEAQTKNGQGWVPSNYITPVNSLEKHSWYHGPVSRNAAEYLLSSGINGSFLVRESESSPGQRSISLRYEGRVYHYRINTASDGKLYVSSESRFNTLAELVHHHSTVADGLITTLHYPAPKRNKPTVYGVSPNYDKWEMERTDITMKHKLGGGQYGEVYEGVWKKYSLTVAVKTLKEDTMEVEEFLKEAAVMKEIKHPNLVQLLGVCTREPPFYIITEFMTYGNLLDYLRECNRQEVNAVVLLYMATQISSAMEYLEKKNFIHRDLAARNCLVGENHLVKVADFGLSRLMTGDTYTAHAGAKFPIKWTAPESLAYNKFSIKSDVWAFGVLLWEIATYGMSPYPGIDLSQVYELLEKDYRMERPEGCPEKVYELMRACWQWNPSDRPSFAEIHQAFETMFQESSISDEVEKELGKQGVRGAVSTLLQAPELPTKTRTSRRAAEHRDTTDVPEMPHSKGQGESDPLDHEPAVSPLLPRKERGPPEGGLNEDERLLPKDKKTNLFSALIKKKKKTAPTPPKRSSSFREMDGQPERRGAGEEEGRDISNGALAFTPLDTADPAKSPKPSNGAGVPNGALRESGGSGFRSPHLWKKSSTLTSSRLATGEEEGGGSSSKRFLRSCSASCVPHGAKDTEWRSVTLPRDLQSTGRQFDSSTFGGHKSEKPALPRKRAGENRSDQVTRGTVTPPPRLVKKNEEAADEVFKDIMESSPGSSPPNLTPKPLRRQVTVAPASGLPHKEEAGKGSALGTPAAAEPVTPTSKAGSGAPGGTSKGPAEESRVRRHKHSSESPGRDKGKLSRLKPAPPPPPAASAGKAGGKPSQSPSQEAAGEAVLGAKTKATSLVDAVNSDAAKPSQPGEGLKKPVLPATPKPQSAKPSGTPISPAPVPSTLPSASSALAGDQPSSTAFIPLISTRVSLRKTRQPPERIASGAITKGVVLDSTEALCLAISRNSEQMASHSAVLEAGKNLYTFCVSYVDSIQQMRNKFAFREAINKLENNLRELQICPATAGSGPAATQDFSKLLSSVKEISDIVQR
Sequence of Ras and Rab interactor 1/Tyrosine-protein kinase ABL1 (Q13671 whole entry): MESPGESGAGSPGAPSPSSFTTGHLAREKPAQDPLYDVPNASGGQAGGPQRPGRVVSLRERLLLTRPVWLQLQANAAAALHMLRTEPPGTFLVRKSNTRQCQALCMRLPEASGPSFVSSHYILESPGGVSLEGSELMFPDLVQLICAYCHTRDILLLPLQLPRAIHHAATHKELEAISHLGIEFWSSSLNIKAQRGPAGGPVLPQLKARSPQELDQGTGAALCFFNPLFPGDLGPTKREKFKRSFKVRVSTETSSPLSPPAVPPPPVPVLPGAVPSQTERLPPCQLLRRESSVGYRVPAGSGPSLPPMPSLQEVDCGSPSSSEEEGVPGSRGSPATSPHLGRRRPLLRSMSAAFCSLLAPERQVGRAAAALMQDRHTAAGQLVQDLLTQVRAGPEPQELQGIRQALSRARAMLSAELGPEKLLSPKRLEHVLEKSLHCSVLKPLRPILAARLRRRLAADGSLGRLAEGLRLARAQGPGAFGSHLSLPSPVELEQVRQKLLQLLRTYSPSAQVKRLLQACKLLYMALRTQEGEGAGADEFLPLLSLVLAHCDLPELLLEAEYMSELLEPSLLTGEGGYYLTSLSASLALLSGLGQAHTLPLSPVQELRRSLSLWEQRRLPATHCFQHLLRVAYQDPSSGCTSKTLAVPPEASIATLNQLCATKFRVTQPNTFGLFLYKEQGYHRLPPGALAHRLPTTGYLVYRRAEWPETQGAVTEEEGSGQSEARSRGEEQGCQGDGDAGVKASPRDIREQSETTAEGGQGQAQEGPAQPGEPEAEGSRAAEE
A short description of assay [4]: nonselective inhibitors of cellular cAMP signaling, dose response, counter-screen for MC4R biased antagonist project, cell-based, TR-FRET cAMP detection (AID 602305).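 Further: U2OS cells stimulated with forskolin near its EC80 as the cAMP inducer; potency is for inhibition of forskolin-stimulated cAMP signaling.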 Type of assay: functional. In general terms: Counterscreens check selectivity or assay interference.
Assay [5] deals with Luciferin 4-monooxygenase (Photinus pyralis, UniProt P08659). The experiment in a line: Counter Screen for Luciferase-based Assay Positives. [Related pubchem assays: 620, 618, 411 ].
Sequence of Luciferin 4-monooxygenase (P08659 whole entry): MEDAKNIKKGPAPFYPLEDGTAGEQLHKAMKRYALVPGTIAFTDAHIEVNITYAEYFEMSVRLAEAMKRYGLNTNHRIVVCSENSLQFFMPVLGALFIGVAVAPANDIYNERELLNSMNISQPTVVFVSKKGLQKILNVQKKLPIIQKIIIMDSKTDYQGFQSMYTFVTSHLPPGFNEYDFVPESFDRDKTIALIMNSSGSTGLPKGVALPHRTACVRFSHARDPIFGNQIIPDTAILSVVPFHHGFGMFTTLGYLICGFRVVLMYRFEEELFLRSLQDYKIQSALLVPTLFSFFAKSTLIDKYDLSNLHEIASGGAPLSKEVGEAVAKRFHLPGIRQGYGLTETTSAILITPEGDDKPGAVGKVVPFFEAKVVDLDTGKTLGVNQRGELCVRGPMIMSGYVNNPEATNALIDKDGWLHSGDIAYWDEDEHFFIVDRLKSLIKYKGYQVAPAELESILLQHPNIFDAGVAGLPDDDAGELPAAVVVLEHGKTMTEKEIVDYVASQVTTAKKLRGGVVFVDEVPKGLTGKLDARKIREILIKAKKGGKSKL
The test system of a further assay is HT-1080. As to the kind of experiment: cytotoxicity in HT1080 fibrosarcoma cells, cell-based, fluorescence readout (AID 620). Type of assay: functional. The following applies: Homo sapiens.
The target in another assay is Melanocortin receptor 4 (Homo sapiens, UniProt P32245). The experiment in a line: MC4R antagonist potency on cAMP, dose response, cell-based, TR-FRET, biased antagonists (AID 602298).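 Further: antagonist potency against agonist-stimulated cAMP production.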 Type of assay: functional.
Sequence of Melanocortin receptor 4 (P32245 whole entry): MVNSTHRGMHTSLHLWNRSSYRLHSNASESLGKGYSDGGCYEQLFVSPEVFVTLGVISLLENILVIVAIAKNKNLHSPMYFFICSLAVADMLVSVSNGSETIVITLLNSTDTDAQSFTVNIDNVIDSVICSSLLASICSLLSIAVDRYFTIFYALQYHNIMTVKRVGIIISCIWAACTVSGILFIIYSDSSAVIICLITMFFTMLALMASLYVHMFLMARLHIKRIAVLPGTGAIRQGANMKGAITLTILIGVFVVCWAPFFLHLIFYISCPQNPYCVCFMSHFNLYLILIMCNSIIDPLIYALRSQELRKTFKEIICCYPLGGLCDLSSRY
The target in another assay is T1, Streptokinase A (Streptococcus pyogenes serotype M1, UniProt P10520).
T1 sequence (P10520 whole entry): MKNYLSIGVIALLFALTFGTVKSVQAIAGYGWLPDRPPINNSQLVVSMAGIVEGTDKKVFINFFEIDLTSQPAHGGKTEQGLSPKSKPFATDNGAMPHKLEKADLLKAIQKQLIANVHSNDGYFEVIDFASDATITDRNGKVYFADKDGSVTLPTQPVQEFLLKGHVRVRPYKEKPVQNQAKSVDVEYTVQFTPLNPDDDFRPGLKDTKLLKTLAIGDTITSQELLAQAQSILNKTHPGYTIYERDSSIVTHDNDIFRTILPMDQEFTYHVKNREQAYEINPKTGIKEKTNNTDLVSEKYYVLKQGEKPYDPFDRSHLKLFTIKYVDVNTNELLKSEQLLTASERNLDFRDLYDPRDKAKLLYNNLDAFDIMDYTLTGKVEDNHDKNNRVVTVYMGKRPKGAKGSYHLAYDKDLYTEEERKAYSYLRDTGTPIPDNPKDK
As to the kind of experiment: S. pyogenes streptokinase expression inhibitors, potency, dose response, plasminogen activation absorbance, OD405 (AID 1914).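 Further: secreted streptokinase activity via plasminogen activation per viability signal from cell pellet.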 Type of assay: functional, Streptococcus pyogenes M1 GAS.

The subject of assay [6] is Streptococcus sp. 'group A'. As to the kind of experiment: growth inhibition of control SK(-) GAS strain, dose response, counter-screen for streptokinase expression inhibitor project, luminescence, kanamycin, BacTiterGlo, confirmation (AID 1900). Type of assay: functional, organism-based.
Assay [7] is described as follows: HEp-2 cell cytotoxicity, dose response, cytotoxicity control for RSV inhibitor project, HTS (AID 2410). Type of assay: functional. The following applies: human respiratory syncytial virus.
Assay [8] is described as follows: inhibitors of intracellular T. cruzi replication, confirmation, NIH3T3 host cells, beta-gal luminescence (AID 2044).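 Further: intracellular parasites grown in NIH/3T3 mouse fibroblasts as host cells; luminescent beta-galactosidase reporter signal from transgenic T. cruzi replicating inside host cells; inhibitors lower the luminescence signal.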 Type of assay: functional, cell-based.
The next assay concerns Streptococcus. As to the kind of experiment: Group A Streptococcus viability loss, dose response, counter-screen for streptokinase expression inhibitor project, luminescence, BacTiterGlo (AID 1915).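 Further: potency for reduction of bacterial viability or growth.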 Type of assay: functional, organism-based.
A short description of assay [9]: cytotoxicity toward NIH3T3 fibroblasts, dose response, counter-screen, cell-based, ATP luminescence, mouse fibroblasts (AID 2010).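 Further: cells exposed to compound for about 90 hours before reading.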 Type of assay: functional.
Assay [10] in a line: Luminescence Cell-Based Dose Retest to Confirm Inhibitors of Cancer Stem Cells. [Related pubchem assays (depositor defined):AID2717, AID2721]. Type of assay: functional. The following applies: Homo sapiens.
For assay [11], the target named is 26S proteasome non-ATPase regulatory subunit 14 (Homo sapiens, UniProt O00487). The experiment in a line: inhibition of proteasome subunit RPN11 – biochemical, fluorescence polarization, uHTS hits, confirmation (AID 602368). Type of assay: functional.
Sequence of 26S proteasome non-ATPase regulatory subunit 14 (O00487 whole entry): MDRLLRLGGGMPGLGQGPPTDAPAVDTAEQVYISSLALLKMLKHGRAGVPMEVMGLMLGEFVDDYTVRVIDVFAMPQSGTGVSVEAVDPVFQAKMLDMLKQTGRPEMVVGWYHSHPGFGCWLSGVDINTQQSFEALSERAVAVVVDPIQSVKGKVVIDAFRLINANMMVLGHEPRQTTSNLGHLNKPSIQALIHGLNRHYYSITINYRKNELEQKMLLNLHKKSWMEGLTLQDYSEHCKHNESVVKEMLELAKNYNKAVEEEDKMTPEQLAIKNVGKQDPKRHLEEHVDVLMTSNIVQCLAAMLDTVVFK
The test system of a further assay is H9c2. The experiment in a line: cells. Type of assay: functional, cell-based. The following applies: Rattus norvegicus, H9c2, Myocardium.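 Further: confirmatory concentration-response retest of ultra-high-throughput screening hits for modulation of myocardial damage; cell death induced by hydrogen peroxide oxidative stress; compound pretreatment for 60 min then peroxide exposure for 2 h; potency is for protecting the cells against peroxide damage rather than for killing them.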
The target of assay [12] is 72 kDa type IV collagenase (Homo sapiens, UniProt P08253). As to the kind of experiment: Dose Response validation of uHTS RPN11 inhibitor hits using a MMP-2 Fluorescence assay. Type of assay: functional.
Sequence of 72 kDa type IV collagenase (P08253 whole entry): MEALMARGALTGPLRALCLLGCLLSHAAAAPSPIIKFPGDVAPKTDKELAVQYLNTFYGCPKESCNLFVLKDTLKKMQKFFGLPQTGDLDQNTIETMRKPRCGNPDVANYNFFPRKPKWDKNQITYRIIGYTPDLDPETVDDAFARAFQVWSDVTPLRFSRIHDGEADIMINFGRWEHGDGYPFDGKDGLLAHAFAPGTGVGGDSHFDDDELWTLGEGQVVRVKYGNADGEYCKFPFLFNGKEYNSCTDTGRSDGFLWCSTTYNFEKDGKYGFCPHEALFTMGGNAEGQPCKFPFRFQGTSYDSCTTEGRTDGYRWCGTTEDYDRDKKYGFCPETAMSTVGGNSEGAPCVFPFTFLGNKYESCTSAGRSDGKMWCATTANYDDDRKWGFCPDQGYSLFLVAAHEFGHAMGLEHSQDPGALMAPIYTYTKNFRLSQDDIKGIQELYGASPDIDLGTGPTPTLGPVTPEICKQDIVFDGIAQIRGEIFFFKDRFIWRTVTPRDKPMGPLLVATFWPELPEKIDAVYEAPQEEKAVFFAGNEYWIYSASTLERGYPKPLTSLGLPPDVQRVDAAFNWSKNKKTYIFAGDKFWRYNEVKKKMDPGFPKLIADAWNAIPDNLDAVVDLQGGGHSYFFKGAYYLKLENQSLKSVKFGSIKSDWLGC
In a further assay the target is Prothrombin (Bos taurus, UniProt P00735). The experiment in a line: thrombin inhibition, dose response, biochemical, fluorescence polarization, uHTS hits (AID 602369). Type of assay: functional. A general note: In fluorescence polarisation assays a small probe gives low polarisation when free and higher when bound to something large.
Assay [13] is described as follows: NIH-3T3 fibroblast cytotoxicity, dose response, cytotoxicity control, cell-based, fluorescence, Alamar Blue, secondary assay (AID 2327).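 Further: NIH-3T3 mouse fibroblasts cultured with fluconazole at 8 µg/mL.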 Type of assay: functional.
The nature of assay [14]: C. albicans growth with fluconazole, confirmation, fluorescence, retest (AID 2467). Type of assay: functional, cell-based.
For assay [15], the target named is T2, Rac GTPase-activating protein 1 (Homo sapiens, UniProt Q9H0H5).
T2 sequence (Q9H0H5 whole entry): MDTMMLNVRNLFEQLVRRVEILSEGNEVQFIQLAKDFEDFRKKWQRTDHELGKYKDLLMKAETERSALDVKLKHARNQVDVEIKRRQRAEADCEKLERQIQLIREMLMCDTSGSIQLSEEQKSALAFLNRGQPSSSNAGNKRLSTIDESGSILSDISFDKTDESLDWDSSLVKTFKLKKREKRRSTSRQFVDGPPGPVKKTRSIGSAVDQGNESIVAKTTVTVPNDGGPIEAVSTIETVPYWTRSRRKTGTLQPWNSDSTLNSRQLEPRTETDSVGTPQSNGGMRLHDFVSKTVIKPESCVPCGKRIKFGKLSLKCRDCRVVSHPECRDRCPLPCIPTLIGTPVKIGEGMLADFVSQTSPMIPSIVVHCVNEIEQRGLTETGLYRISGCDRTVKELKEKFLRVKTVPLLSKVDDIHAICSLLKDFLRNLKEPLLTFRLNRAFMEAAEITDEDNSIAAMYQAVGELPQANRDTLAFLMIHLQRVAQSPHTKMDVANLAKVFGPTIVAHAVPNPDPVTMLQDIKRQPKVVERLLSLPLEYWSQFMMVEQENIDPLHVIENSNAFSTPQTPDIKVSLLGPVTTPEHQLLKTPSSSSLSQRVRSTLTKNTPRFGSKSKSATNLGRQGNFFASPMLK
The experiment in a line: MgcRacGAP GTPase-activating activity inhibitors, confirmation, biochemical, ADP Hunter fluorescence, primary and confirmatory (AID 624330). Type of assay: functional.

The target in assay [16] is T3, Carboxy-terminal domain RNA polymerase II polypeptide A small phosphatase 1 (Homo sapiens, UniProt Q9GZU7).
T3 sequence (Q9GZU7 whole entry): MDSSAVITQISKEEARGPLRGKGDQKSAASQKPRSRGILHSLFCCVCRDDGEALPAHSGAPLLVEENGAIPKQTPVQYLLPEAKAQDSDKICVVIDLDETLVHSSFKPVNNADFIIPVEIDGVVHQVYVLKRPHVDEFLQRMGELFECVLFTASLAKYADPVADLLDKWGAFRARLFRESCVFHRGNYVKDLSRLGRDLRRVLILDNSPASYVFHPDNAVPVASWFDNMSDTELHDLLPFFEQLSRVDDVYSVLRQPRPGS
As to the kind of experiment: inhibitors of CTDSP1, concentration-response testing, biochemical assay, absorbance-based, actives from ultra-high-throughput screening (AID 540297). Type of assay: functional.

Sequence of Cytochrome P450 2C19 (P33261 whole entry, the tested form may be a part): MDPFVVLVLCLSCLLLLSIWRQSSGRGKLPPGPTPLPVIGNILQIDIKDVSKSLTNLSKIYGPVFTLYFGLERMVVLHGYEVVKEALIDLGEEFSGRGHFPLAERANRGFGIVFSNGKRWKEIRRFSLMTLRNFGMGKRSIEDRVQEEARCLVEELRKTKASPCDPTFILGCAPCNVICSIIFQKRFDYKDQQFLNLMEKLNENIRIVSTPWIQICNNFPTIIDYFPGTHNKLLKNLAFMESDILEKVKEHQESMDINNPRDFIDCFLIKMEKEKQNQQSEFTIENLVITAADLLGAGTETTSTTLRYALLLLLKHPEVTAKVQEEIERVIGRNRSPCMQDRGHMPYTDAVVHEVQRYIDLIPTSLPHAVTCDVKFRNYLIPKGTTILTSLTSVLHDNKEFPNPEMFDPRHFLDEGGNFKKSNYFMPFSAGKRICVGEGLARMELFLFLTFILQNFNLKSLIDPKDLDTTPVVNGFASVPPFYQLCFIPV
Sequence of Cytochrome P450 2D6 (P10635 whole entry): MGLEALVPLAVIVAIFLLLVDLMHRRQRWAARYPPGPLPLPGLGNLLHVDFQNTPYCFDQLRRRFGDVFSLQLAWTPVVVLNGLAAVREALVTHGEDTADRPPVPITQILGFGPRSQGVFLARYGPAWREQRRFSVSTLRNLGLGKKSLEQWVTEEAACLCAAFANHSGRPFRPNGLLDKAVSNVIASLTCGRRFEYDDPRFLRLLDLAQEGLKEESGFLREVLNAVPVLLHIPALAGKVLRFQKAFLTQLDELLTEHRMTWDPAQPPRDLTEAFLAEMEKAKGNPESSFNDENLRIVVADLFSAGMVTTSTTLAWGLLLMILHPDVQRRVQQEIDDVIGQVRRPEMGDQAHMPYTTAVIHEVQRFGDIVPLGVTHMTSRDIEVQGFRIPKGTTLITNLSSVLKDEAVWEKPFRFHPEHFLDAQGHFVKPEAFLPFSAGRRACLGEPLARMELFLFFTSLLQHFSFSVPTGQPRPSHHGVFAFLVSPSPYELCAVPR

As for `Cc1ccccc1N1C(=O)NC(=O)/C(=C\NNC(=O)c2ccncc2)C1=O`, the AC50 (as a rule, the concentration giving half of the maximal activity seen) in [1] is 114 µM (active).
As to `CCCN(C(=O)Cc1n[nH]c(N)n1)C1(C(=O)Nc2ccccc2C)CCCCC1`, the half-maximal activity concentration (AC50) at Cytochrome P450 2D6 was 17.8 µM (inconclusive); at Cytochrome P450 2C9, 0.224 µM (inconclusive); on Cytochrome P450 2C19, 20 µM (inconclusive); in assay [2], 90.8 µM (active).
For the compound `CCCCSCc1[nH]c(O)nc1C(=O)CCCCC(=O)OCC`, the IC50 (usually the point on the concentration scale where inhibition reaches its midpoint) in assay [3] is 4.76 µM (active).
As to `Cc1cc(NC(=O)CC(C)C)c(=O)n(Cc2ccccc2F)c1`, the AC50 in [1] was 130 µM (active).
For the compound `N#Cc1cc2c(nc1SCC(=O)Nc1nccs1)CCCCC2`, the figures for the IC50 (in assay [4]; on Melanocortin receptor 4) were 14.9 µM (inactive) and 11.8 µM (inactive), respectively. Also, the EC50 (usually the concentration needed to bring the measured effect to its halfway point) is recorded as > 100 µM (not active) in assay [5] and > 50 µM (not active) in the assay with HT-1080.
In the case of `CC(C)C1C(c2ccccc2)N(C)C(c2ccccc2)CC1(O)c1ccccc1` (stereo not drawn), the IC50 (in assay [4]; on Melanocortin receptor 4) was > 64.6 µM (inactive) each time. The concentration for a half-maximal effect (EC50) on Streptokinase A is 2.22 µM (active); in assay [6] it was 1.55 µM (active); in assay [8], 2.43 µM (active); in the assay with Streptococcus it was 7.03 µM (active); in [9], > 60 µM (not active). Besides, the CC50 (commonly the concentration that lowers cell viability or growth by half) in [7] is 25.3 µM (active). For the same compound, the AC50 in assay [10] was 1.9 µM (active).
In the case of `CN(CCc1ccccc1)C(=O)c1ccc(NC(=O)Cc2ccc(NC(=O)C3CCN(C(=O)C4CCC4)CC3)cc2)cc1`, the IC50 in assay [3] was 16.9 µM (inactive).
Consider `COc1ccc2o/c(=N/NC(=O)c3cccs3)c(C(N)=O)cc2c1`, for which the IC50 in assay [11] was 38.5 µM (active); in the assay on H9c2, > 79 µM (inactive); in assay [12], > 100 µM (inactive); at Prothrombin it was 79.7 µM (active).
On to `COc1ccc(O)c(/C=N/NC(=O)c2c(C)nnn2-c2nonc2N)c1`, for which the half-maximal inhibitory concentration (IC50) in assay [11] is 13.1 µM (active); in assay [15] it was 79.7 µM (active); in assay [12], > 100 µM (inactive); in assay [16] it was 6.12 µM (active); on Prothrombin it was 54.6 µM (active). For the same compound, the EC50 in assay [13] is > 150 µM (inconclusive); in assay [14] it was > 38 µM (not active).
As for `C/C(CC(=O)Nc1ccc(F)cc1)=N\NC(=O)c1ccccn1`, the AC50 in assay [2] was 89.2 µM (active).
